Data set [1] addresses T1, human amylin receptor (amylin 3(a) receptor: human calcitonin receptor + RAMP-3) (Homo sapiens, UniProt O60896+P30988).
T1 construct: expressed in transfected cells; host or cells: BHK570
T1 sequence (P30988 25-474): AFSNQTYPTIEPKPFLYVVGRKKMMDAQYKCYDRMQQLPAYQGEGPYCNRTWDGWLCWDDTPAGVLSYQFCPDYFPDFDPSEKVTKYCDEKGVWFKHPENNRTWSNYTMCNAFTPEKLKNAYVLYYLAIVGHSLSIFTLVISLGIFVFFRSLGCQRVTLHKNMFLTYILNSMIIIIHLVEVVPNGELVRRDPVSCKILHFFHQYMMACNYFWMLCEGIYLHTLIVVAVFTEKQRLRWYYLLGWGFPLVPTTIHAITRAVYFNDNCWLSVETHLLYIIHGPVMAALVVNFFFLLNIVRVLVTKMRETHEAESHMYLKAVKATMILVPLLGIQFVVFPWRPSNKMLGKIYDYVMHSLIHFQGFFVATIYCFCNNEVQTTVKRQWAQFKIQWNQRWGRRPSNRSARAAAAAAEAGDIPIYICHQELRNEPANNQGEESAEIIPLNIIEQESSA
T1 sequence (O60896 24-148 partner): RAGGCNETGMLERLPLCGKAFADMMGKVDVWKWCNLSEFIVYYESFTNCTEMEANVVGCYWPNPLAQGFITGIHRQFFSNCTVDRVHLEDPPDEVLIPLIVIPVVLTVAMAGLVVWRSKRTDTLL
The data set can be described thus: Assay (II)a functional CRE-luciferase assay, human amylin receptor. In kind it is cell-based. The conditions noted are these: Table 2; BHK amylin 3(a)-receptor/CRE-luc cells.

The target in data set [2] is T2, human calcitonin receptor (Homo sapiens, UniProt P30988).
T2 construct: expressed in transfected cells; host or cells: BHK570
T2 sequence (P30988 25-474): T1 sequence (P30988 25-474)
Put plainly: Assay (II)a functional CRE-luciferase assay, human calcitonin receptor. In kind it is cell-based.

Data set [3] is described as follows: Assay (III) ThT fibrillation assay for physical stability. Type of data set: physicochemical. The conditions noted are these: ThT fibrillation assay. In a few lines: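 Freshly prepared formulations, pH-adjusted, with 1 μM ThT; four or eight replicates incubated at 37 °C under 960 rpm orbital shaking. Fluorescence (ex 444/em 485 nm) read every 20 min; […]. Peptide concentration measured by RP-HPLC before and after the run.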

The nature of data set [4]: Assay (IV) determination of solubility. In kind it is physicochemical. In short, it runs like this: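 Stock ~500 nmol/ml in water; 1:1 with 100 mM buffer, pH 3.0–8.0 (glycylglycine ≤5.0, bistrispropane ≥6.0); 18 h RT; spin; HPLC quantitation of soluble polypeptide.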
The mark [5] stands for this setting: bistrispropane buffer, pH 6, pH 6.0, read-out: Solubility pH 6.0.
Where [6] appears, read: bistrispropane buffer, pH 6.5, pH 6.5, read-out: Solubility pH 6.5.
Setting [7] is: bistrispropane buffer, pH 7, pH 7.0, 18 hours at room temperature, Table 3, read-out: Solubility pH 7.0.
Where [8] appears, read: bistrispropane buffer, pH 7, pH 7.0, read-out: Solubility pH 7.0.
Setting [9] is: bistrispropane buffer, pH 7.5, pH 7.5, read-out: Solubility pH 7.5.
[10] abbreviates: bistrispropane buffer, pH 8, pH 8.0, read-out: Solubility pH 8.0.
Setting [11] is: glycylglycine buffer, pH 3, pH 3.0, read-out: Solubility pH 3.0.
[12] abbreviates: glycylglycine buffer, pH 4, pH 4.0, 18 hours at room temperature, Table 2, read-out: Solubility pH 4.0.
Setting [13] is: glycylglycine buffer, pH 4, pH 4.0, read-out: Solubility pH 4.0.
Where [14] appears, read: glycylglycine buffer, pH 5, pH 5.0, read-out: Solubility pH 5.0.
[15] abbreviates: Table 7, human calcitonin (CTa) receptor.

Where two headings read alike, the source gives them in different places. Starred links: 1 amine or outer side, 2 acyl side, 3 side chain; linkers in the order of their positions; H or OH if unused. Positions of bridges follow the written chain, without caps; N, C: chain ends. Residues, ends and D or L forms follow the SMILES beside them. Groups on a side chain read outwards from the residue. *: point of attachment. C20 diacid = O=C(O)CCCCCCCCCCCCCCCCCCC(=O)*; C18 diacid = O=C(O)CCCCCCCCCCCCCCCCC(=O)*; γGlu = O=C(O)[C@H](CCC(=O)[*:2])N[*:1]; AEEA = NCCOCCOCC(=O)O

For the compound `CC[C@H](C)[C@H](NC(=O)[C@@H]1CCCN1C(=O)CNC(=O)[C@H](Cc1ccccc1)NC(=O)[C@H](CC(N)=O)NC(=O)[C@H](CC(N)=O)NC(=O)[C@H](CO)NC(=O)[C@H](CO)NC(=O)[C@H](Cc1c[nH]cn1)NC(=O)[C@H](CCCCNC(=O)COCCOCCNC(=O)COCCOCCNC(=O)CC[C@H](NC(=O)CCCCCCCCCCCCCCCCC(=O)O)C(=O)O)NC(=O)[C@H](CC(C)C)NC(=O)[C@H](Cc1ccccc1)NC(=O)[C@H](CCC(=O)O)NC(=O)[C@H](C)NC(=O)[C@H](CC(C)C)NC(=O)[C@H](CCCNC(=N)N)NC(=O)[C@H](CCC(N)=O)NC(=O)[C@@H](NC(=O)[C@H](C)NC(=O)[C@@H]1CSSC[C@H](NC(=O)[C@@H](N)CCCCN)C(=O)N[C@@H](CC(N)=O)C(=O)N[C@@H]([C@@H](C)O)C(=O)N[C@@H](C)C(=O)N[C@@H]([C@@H](C)O)C(=O)N1)[C@@H](C)O)C(=O)N[C@@H](CC(C)C)C(=O)N1CCC[C@H]1C(=O)N1CCC[C@H]1C(=O)N[C@H](C(=O)N[C@@H](CC(N)=O)C(=O)N[C@H](C(=O)NCC(=O)N[C@@H](CO)C(=O)N[C@@H](CC(N)=O)C(=O)N[C@H](C(=O)N[C@@H](Cc1ccc(O)cc1)C(N)=O)[C@@H](C)O)C(C)C)[C@@H](C)O` [Example 80, N-epsilon17-[2-(2-{2-[2-(2-{2-[(S)-4-Carboxy-4-(17-carboxyheptadecanoylamino)butyrylamino]ethoxy}ethoxy)acetylamino]ethoxy}ethoxy)acetyl]-[Glu14,Lys17]-pramlintide] (H-KCNTATCATQRLAEFLK([AEEA-AEEA-γGlu-C18 diacid])HSSNNFGPILPPTNVGSNTY-NH2; disulfide 2-7), the EC50 – broadly, the concentration at which the effect is half-maximal – in data set [1] came to 0.456 nM; in data set [2] (Table 11, read-out: CTa receptor human EC50) it was 4.3 nM. The “ThT pH 4.0 lag time (h)” value in data set [3] was determined as 3 h. The solubility at 18 h in data set [4] (setting [5]), in data set [4] (setting [6]), in data set [4] (setting [7]), in data set [4] (setting [8]), in data set [4] (setting [9]) and in data set [4] (setting [10]) was more than 200 µM in each case. Also, the solubility at 18 h in data set [4] (setting [11]), in data set [4] (setting [12]), in data set [4] (setting [13]) and in data set [4] (setting [14]) was more than 200 µM each time.
Take `CC[C@H](C)[C@H](NC(=O)[C@@H]1CCCN1C(=O)CNC(=O)[C@H](Cc1ccccc1)NC(=O)[C@H](CC(N)=O)NC(=O)[C@H](CC(N)=O)NC(=O)[C@H](CO)NC(=O)[C@H](CO)NC(=O)[C@H](Cc1c[nH]cn1)NC(=O)[C@H](Cc1c[nH]cn1)NC(=O)[C@H](CC(C)C)NC(=O)[C@H](Cc1ccccc1)NC(=O)[C@H](CCC(=O)O)NC(=O)[C@H](C)NC(=O)[C@H](CC(C)C)NC(=O)[C@H](CCCNC(=N)N)NC(=O)[C@H](CCC(N)=O)NC(=O)[C@@H](NC(=O)[C@H](C)NC(=O)[C@@H]1CSSC[C@H](NC(=O)[C@H](CCCCN)NC(=O)CNC(=O)CC[C@H](NC(=O)CCCCCCCCCCCCCCCCCCC(=O)O)C(=O)O)C(=O)N[C@@H](CC(N)=O)C(=O)N[C@@H]([C@@H](C)O)C(=O)N[C@@H](C)C(=O)N[C@@H]([C@@H](C)O)C(=O)N1)[C@@H](C)O)C(=O)N[C@@H](CC(C)C)C(=O)N1CCC[C@H]1C(=O)N1CCC[C@H]1C(=O)N[C@H](C(=O)N[C@@H](CC(N)=O)C(=O)N[C@H](C(=O)NCC(=O)N[C@@H](CO)C(=O)N[C@@H](Cc1c[nH]cn1)C(=O)N[C@H](C(=O)N[C@@H](Cc1ccc(O)cc1)C(N)=O)[C@@H](C)O)C(C)C)[C@@H](C)O` [Example 81, N-alpha-[(S)-4-Carboxy-4-(19-carboxynonadecanoylamino)butyryl]-Gly-[Glu14,His17,His35]-pramlintide] ({C20 diacid-γGlu}-GKCNTATCATQRLAEFLHHSSNNFGPILPPTNVGSHTY-NH2; disulfide 3-8 (inferred); C-terminus assumed): the results for the EC50 in data set [1] and in data set [2] (setting [15]) were 0.0955 nM and 0.0705 nM, respectively. For the same compound, in data set [3], the “ThT pH 4.0 lag time (h)” value came out at 24 h. Also, the solubility at 18 h in data set [4] (setting [5]), in data set [4] (setting [6]), in data set [4] (setting [7]), in data set [4] (setting [8]), in data set [4] (setting [9]) and in data set [4] (setting [10]) was more than 200 µM each time. For the same compound, the solubility at 18 h in data set [4] (setting [11]), in data set [4] (setting [12]), in data set [4] (setting [13]) and in data set [4] (setting [14]) was more than 200 µM throughout.
With `CC[C@H](C)[C@H](NC(=O)[C@@H]1CCCN1C(=O)CNC(=O)[C@H](Cc1ccccc1)NC(=O)[C@H](CC(N)=O)NC(=O)[C@H](CC(N)=O)NC(=O)[C@H](CO)NC(=O)[C@H](CO)NC(=O)[C@H](Cc1c[nH]cn1)NC(=O)[C@H](Cc1c[nH]cn1)NC(=O)[C@H](CC(C)C)NC(=O)[C@H](Cc1ccccc1)NC(=O)[C@H](CCC(=O)O)NC(=O)[C@H](C)NC(=O)[C@H](CC(C)C)NC(=O)[C@H](CCCNC(=N)N)NC(=O)[C@H](CCC(N)=O)NC(=O)[C@@H](NC(=O)[C@H](C)NC(=O)[C@@H]1CSSC[C@H](NC(=O)[C@H](CCC(=O)O)NC(=O)COCCOCCNC(=O)COCCOCCNC(=O)CC[C@H](NC(=O)CCCCCCCCCCCCCCCCC(=O)O)C(=O)O)C(=O)N[C@@H](CC(N)=O)C(=O)N[C@@H]([C@@H](C)O)C(=O)N[C@@H](C)C(=O)N[C@@H]([C@@H](C)O)C(=O)N1)[C@@H](C)O)C(=O)N[C@@H](CC(C)C)C(=O)N1CCC[C@H]1C(=O)N1CCC[C@H]1C(=O)N[C@H](C(=O)N[C@@H](CC(N)=O)C(=O)N[C@H](C(=O)NCC(=O)N[C@@H](CO)C(=O)N[C@@H](CC(N)=O)C(=O)N[C@H](C(=O)N1CCC[C@H]1C(N)=O)[C@@H](C)O)C(C)C)[C@@H](C)O` [Example 82, N-alpha-[2-(2-{2-[2-(2-{2-[(S)-4-Carboxy-4-(17-carboxyheptadecanoylamino)butyrylamino]ethoxy}ethoxy)acetylamino]ethoxy}ethoxy)acetyl]-[Glu1,Glu14,His17,Pro37]-pramlintide] ({C18 diacid-γGlu-AEEA-AEEA}-ECNTATCATQRLAEFLHHSSNNFGPILPPTNVGSNTP-NH2; disulfide 2-7 (inferred); C-terminus assumed), the 50% effective concentration (EC50) worked out at 0.108 nM in data set [1] and 0.288 nM in data set [2] (setting [15]). Also, the “ThT pH 4.0 lag time (h)” value in data set [3] is recorded as 14 h. For the same compound, the solubility at 18 h in data set [4] (setting [5]), in data set [4] (setting [6]), in data set [4] (setting [7]), in data set [4] (setting [8]), in data set [4] (setting [9]) and in data set [4] (setting [10]) was more than 200 µM throughout. Moreover, the solubility at 18 h in data set [4] (setting [11]), in data set [4] (setting [12]), in data set [4] (setting [13]) and in data set [4] (setting [14]) was more than 200 µM throughout.

These data come from patent publication US8722849B2, “Polypeptides” (Novo Nordisk A/S, priority 2011, dated 2014).
